Measured values as given in US9586966B2, “Piperazino[1,2-a]indol-1-ones and [1,4]diazepino[1,2-a]indol-one” (Hoffmann-La Roche Inc., priority 2013, dated 2017).

Assays:
[1] = test system: human embryonic stem cell derived neural stem cells (NSCs); experiment: Neural stem cell proliferation assay (neurogenesis assay, ATP levels by CellTiterGlo); type: cell-based; settings: 96 h, concentration at which 150% activity of control (100%) is reached, NSC proliferation, ATP levels after 4 days incubation, dose response 8 μM to 8 nM
Experimental: Neural Stem Cell Proliferation Assay
Neurogenic properties of small molecules are determined based on the proliferation of human embryonic stem cell derived neural stem cells (NSCs) which were derived via a dual smad inhibition as previously described (Chambers, S. M., et al., Highly efficient neural conversion of human ES and iPS cells by dual inhibition of SMAD signaling, Nature biotechnology, 2009. 27(3): p. 275-80.)
Compounds respond is measured by the increase in cells based on ATP levels (Promega:CellTiterGlo®) after an incubation period of 4 days.
NSCs are thawed and expanded over 3 passages. On the 14th day, NSCs are seeded in Polyornithin/Laminin coated 384 well plates at a cell density of 21′000 cells/cm^2 in a media volume of 38 μl. 4 hours after cell seeding, compound solutions are added at a volume of 2 μl. Stock solutions of the compounds (water, 5% DMSO) are diluted to obtain a dose response (11 points, dilution factor is 2), ranging from 8 μM to 8 nM. Controls are run to consistently determine the neurogenic properties of the cells:
Negative (neutral) control is cell culture Media (final DMSO concentration: 0.25%).
1. cell culture Media+100 ng/ml FGF2 (final DMSO concentration: 0.1%)
2. cell culture Media+20 ng/ml EGF (final DMSO concentration: 0.1%)
3. cell culture Media+100 ng/ml Wnt3a (final DMSO concentration: 0.1%)
After 4 days incubation at 37° C., 5% CO2, the amount of ATP per well is quantified. The ATP concentration is proportional to the cell number. ATP is quantified by using the Promega CellTiterGlo® kit. The CellTiterGlo® reagents contain a cell lysis buffer, a thermo stable luciferase (UltraGlo™ recombinant luciferase), magnesium and luciferin. Luciferin reacts with ATP producing oxyluciferin, AMP and light. The luminescence signal is proportional to the ATP content.
The value of negative (neutral) control is determined for each assay plate by taking the average of 16 negative control wells. The neurogenic compound response is calculated for each compound as (compound/Negative Control)*100.
The values of EC150 from the dose response curve are determined for each test compound. The EC150 is the compound concentration at which 150% activity of control (100%) is reached.

Structure (SMILES) | EC (150% of control) [1] | melting point
Cc1cc(F)cc2cc3n(c12)CCCNC3=O [Example 1, 9-Fluoro-7-methyl-2,3,4,5-tetrahydro-[1,4]diazepino[1,2-a]indol-1-one] | 0.21 µM | 198 °C
Cc1cc(F)cc2cc3n(c12)CCNC3=O [Example 2, 8-Fluoro-6-methyl-3,4-dihydro-2H-pyrazino[1,2-a]indol-1-one] | 0.17 µM | 250.5 °C
Cc1c2n(c3c(CC(C)C)cc(F)cc13)CCNC2=O [Example 3, 8-Fluoro-6-isobutyl-10-methyl-3,4-dihydro-2H-pyrazino[1,2-a]indol-1-one] | 0.009 µM | 189 °C
Cc1c2n(c3ccc(F)cc13)CCNC2=O [Example 4, 8-Fluoro-10-methyl-3,4-dihydro-2H-pyrazino[1,2-a]indol-1-one] | 0.31 µM | 230 °C
Cc1c2n(c3c(C)cc(F)cc13)CCNC2=O [Example 5, 8-Fluoro-6,10-dimethyl-3,4-dihydro-2H-pyrazino[1,2-a]indol-1-one] | 0.074 µM | 208 °C
Cc1c2n(c3c(N4CCOCC4)cc(F)cc13)CCNC2=O [Example 6, 8-Fluoro-10-methyl-6-morpholin-4-yl-3,4-dihydro-2H-pyrazino[1,2-a]indol-1-one] | 0.21 µM | 226 °C
Cc1c2n(c3c(C)cc(Cl)cc13)CCNC2=O [Example 7, 8-Chloro-6,10-dimethyl-3,4-dihydro-2H-pyrazino[1,2-a]indol-1-one] | 0.11 µM | 251 °C
CCc1cc(F)cc2c(C)c3n(c12)CCNC3=O [Example 8, 6-Ethyl-8-fluoro-10-methyl-3,4-dihydro-2H-pyrazino[1,2-a]indol-1-one] | 0.019 µM | 177 °C
Cc1c2n(c3c(N4CCS(=O)(=O)CC4)cc(F)cc13)CCNC2=O [Example 9, 6-(1,1-Dioxo-1λ^6-thiomorpholin-4-yl)-8-fluoro-10-methyl-3,4-dihydro-2H-pyrazino[1,2-a]indol-1-one] | 0.015 µM | 387 °C
CCc1cc(Cl)cc2c(C)c3n(c12)CCNC3=O [Example 10, 8-Chloro-6-ethyl-10-methyl-3,4-dihydro-2H-pyrazino[1,2-a]indol-1-one] | 0.34 µM | 191 °C
C=CCc1cc(F)cc2c(C)c3n(c12)CCNC3=O [Example 11, 6-Allyl-8-fluoro-10-methyl-3,4-dihydro-2H-pyrazino[1,2-a]indol-1-one] | 0.14 µM | 172 °C
Cc1c2n(c3c(CCC(C)C)cc(F)cc13)CCNC2=O [Example 12, 8-Fluoro-10-methyl-6-(3-methyl-butyl)-3,4-dihydro-2H-pyrazino[1,2-a]indol-1-one] | 0.07 µM | 161 °C
Cc1c2n(c3c(CCCC#N)cc(F)cc13)CCNC2=O [Example 13, 4-(8-Fluoro-10-methyl-1-oxo-1,2,3,4-tetrahydro-pyrazino[1,2-a]indol-6-yl)-butyronitrile] | 0.31 µM | 194 °C
Cc1c2n(c3c(CC(C)C)cc(Cl)cc13)CCNC2=O [Example 14, 8-Chloro-6-isobutyl-10-methyl-3,4-dihydro-2H-pyrazino[1,2-a]indol-1-one] | 0.19 µM | 199 °C
Cc1c2n(c3c(Cc4ccc(F)cc4)cc(F)cc13)CCNC2=O [Example 15, 8-Fluoro-6-(4-fluoro-benzyl)-10-methyl-3,4-dihydro-2H-pyrazino[1,2-a]indol-1-one] | 0.16 µM | 178 °C
Cc1c2n(c3c(N4CC5(COC5)C4)cc(F)cc13)CCNC2=O [Example 16, 8-Fluoro-10-methyl-6-(2-oxa-6-aza-spiro[3.3]hept-6-yl)-3,4-dihydro-2H-pyrazino[1,2-a]indol-1-one] | 0.23 µM | 237 °C
Cc1c2n(c3c(N4CCS(=O)(=O)CC4)cc(Cl)cc13)CCNC2=O [Example 17, 8-Chloro-6-(1,1-dioxo-1λ^6-thiomorpholin-4-yl)-10-methyl-3,4-dihydro-2H-pyrazino[1,2-a]indol-1-one] | 0.011 µM | 386 °C

Structure (SMILES) | EC (150% of control) [1] | melting point
Cc1c2n(c3c(N4CCOCC4)cc(Cl)cc13)CCNC2=O [Example 18, 8-Chloro-10-methyl-6-morpholin-4-yl-3,4-dihydro-2H-pyrazino[1,2-a]indol-1-one] | 0.039 µM | 207 °C
Cc1c2n(c3c(N4CCS(=O)(=O)CC4)cc(C#N)cc13)CCNC2=O [Example 19, 6-(1,1-Dioxo-1λ^6-thiomorpholin-4-yl)-10-methyl-1-oxo-1,2,3,4-tetrahydro-pyrazino[1,2-a]indole-8-carbonitrile] | 0.008 µM | 400 °C
C#Cc1cc(F)cc2c(C)c3n(c12)CCNC3=O [Example 20, 6-Ethynyl-8-fluoro-10-methyl-3,4-dihydro-2H-pyrazino[1,2-a]indol-1-one] | 0.04 µM | 259 °C
CC(C)Cc1cc(C#N)cc2cc3n(c12)CCNC3=O [Example 21, 6-Isobutyl-1-oxo-1,2,3,4-tetrahydro-pyrazino[1,2-a]indole-8-carbonitrile] | 0.14 µM | 260.5 °C
CC(C)Cc1cc(F)cc2cc3n(c12)CCCNC3=O [Example 22, 9-Fluoro-7-isobutyl-2,3,4,5-tetrahydro-[1,4]diazepino[1,2-a]indol-1-one] | 0.11 µM | 157 °C
CC(C)Cc1cc(F)cc2cc3n(c12)CCNC3=O [Example 23, 8-Fluoro-6-(2-methylpropyl)-3,4-dihydro-2H-pyrazino[1,2-a]indol-1-one] | 0.02 µM | 229 °C
Cc1c2n(c3c(OCC(F)(F)F)cc(F)cc13)CCNC2=O [Example 24, 8-Fluoro-10-methyl-6-(2,2,2-trifluoroethoxy)-3,4-dihydro-2H-pyrazino[1,2-a]indol-1-one] | 0.17 µM | 239 °C
CC(C)Cc1cc(Cl)cc2cc3n(c12)CCCNC3=O [Example 25, 9-Chloro-7-(2-methylpropyl)-2,3,4,5-tetrahydro-[1,4]diazepino[1,2-a]indol-1-one] | 1.15 µM | 186 °C
CC(C)Cc1cc(Cl)cc2cc3n(c12)CCNC3=O [Example 26, 8-Chloro-6-(2-methylpropyl)-3,4-dihydro-2H-pyrazino[1,2-a]indol-1-one] | 0.16 µM | 236 °C
Cc1cc(Cl)cc2cc3n(c12)CCNC3=O [Example 27, 8-Chloro-6-methyl-3,4-dihydro-2H-pyrazino[1,2-a]indol-1-one] | 5.1 µM | 263 °C
Cc1cc(Cl)cc2cc3n(c12)CCCNC3=O [Example 28, 9-Chloro-7-methyl-2,3,4,5-tetrahydro-[1,4]diazepino[1,2-a]indol-1-one] | 4.1 µM | 207 °C
Cc1c2n(c3c(C#N)cc(F)cc13)CCNC2=O [Example 29, 8-Fluoro-10-methyl-1-oxo-3,4-dihydro-2H-pyrazino[1,2-a]indole-6-carbonitrile] | 0.5 µM | 265 °C
Cc1c2n(c3c(OC(F)(F)F)cc(C#N)cc13)CCNC2=O [Example 30, 10-Methyl-1-oxo-6-(trifluoromethoxy)-3,4-dihydro-2H-pyrazino[1,2-a]indole-8-carbonitrile] | 0.11 µM | 253 °C
Cc1cc(CC(C)C)c2c(c1)cc1n2CCNC1=O [Example 31, 8-Methyl-6-(2-methylpropyl)-3,4-dihydro-2H-pyrazino[1,2-a]indol-1-one] | 1.16 µM | 182 °C
Cc1cc(CC(C)C)c2c(c1)cc1n2CCCNC1=O [Example 32, 9-Methyl-7-(2-methylpropyl)-2,3,4,5-tetrahydro-[1,4]diazepino[1,2-a]indol-1-one] | 2.6 µM | 160 °C
Cc1cc(C)c2c(c1)cc1n2CCNC1=O [Example 33, 6,8-Dimethyl-3,4-dihydro-2H-pyrazino[1,2-a]indol-1-one] | 4.9 µM | 253 °C
Cc1c2n(c3c(CC(C)C)cc(C#N)cc13)CCCNC2=O [Example 34, 11-Methyl-7-(2-methylpropyl)-1-oxo-2,3,4,5-tetrahydro-[1,4]diazepino[1,2-a]indole-9-carbonitrile] | 0.13 µM | 235 °C
